Active and inactive are the calls of the source.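 Rule for the calls: active = compounds lowering Shn3 signal with a fitted half-maximal concentration at most twice the top tested dose; inconclusive = flat curve with 30 to 70% loss, or poor fit; inactive = the rest.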
Target: Schnurri-3 (HIVEP3) mRNA
Assay: reduction of Shn3 mRNA levels, dose response, orthogonal assay for Schnurri-3 inhibitor project, Clone20 cells, qPCR, dry powder (AID 720695)
Details: overnight; for Shn3 expression, relative signal: at 35 µM (top of the series)

| AC50 [µM] | Shn3 expression, relative signal | SMILES |
| --- | --- | --- |
| 28 | – | CCCc1nnc(NC(=O)c2nc(S(=O)(=O)Cc3ccc(C)cc3)ncc2Cl)s1 |
| – | inactive | COc1ccc(NS(=O)(=O)c2ccc(C(=O)N3CCCCCC3)cc2)cc1 |
| – | inactive | COc1cc2ncnc(N[C@H](C)c3ccccc3)c2cc1OC |
| – | inactive | CCOC(=O)C1(Cc2ccc(Cl)cc2)CCN(C(C)Cc2ccc(O)c(OC)c2)CC1 (stereo not drawn) |
| – | inactive | O=C1CSc2ccc(C(=O)Nc3cccc(S(=O)(=O)Nc4ccc(Br)cc4)c3)cc2N1 |
| 11.6 | – | CCOC(=O)c1ccc(NC(=O)Cn2ncc(Cl)c(Cl)c2=O)cc1 |
| – | inactive | CCOC(=O)C1CCN(C(=O)c2ccc(OCC(=O)Nc3cccc(C(F)(F)F)c3)c(OC)c2)CC1 |
| 26.6 | – | CN(C(=O)COc1ccccc1C(=O)NCCOc1ccccc1)c1ccccc1 |
| – | inactive | CN(C)c1nc(-c2ccccn2)nnc1-c1ccccc1 |
| – | inactive | COc1ccc(Nc2nc(N3CCCCC3)c3ccccc3n2)cc1 |
| – | inactive | CCCOc1ccccc1C1CC(=O)Nc2cc3c(cc21)OCO3 (stereo not drawn) |
| – | inactive | Cc1cc(N2CCCC2=O)cc(C)c1S(=O)(=O)NCCOc1ccc(C(C)(C)C)cc1 |
| – | inactive | Nc1nonc1C(=O)NCCNCc1cc(Br)ccc1OCc1ccc(F)cc1 |
| – | inactive | CN(CC(=O)Nc1cccc(S(=O)(=O)N2CCOCC2)c1)CC(=O)Nc1ccc(Cl)c(C(F)(F)F)c1 |
| – | inactive | Fc1ccc(-n2nnnc2-c2cnc(-c3cccs3)nc2C(F)(F)F)cc1 |
| – | inactive | CC(=O)Nc1cccc(NC(=O)CSc2ncc(-c3ccc(Cl)cc3)n2Cc2ccco2)c1 |
| – | inactive | CC(C)(C)NC(=O)CSc1nc2ccc(NC(=O)CSc3nnnn3Cc3ccccc3)cc2s1 |
| 22.3 | – | CC(C)[C@H](NC(=O)OC(C)(C)C)c1nnc(S(=O)(=O)Cc2c(F)cccc2Cl)o1 |
| 13.7 | – | O=C(c1nnsc1S(=O)c1ccc(Cl)cc1)N1CCOCC1 (stereo not drawn) |
| 8.91 | – | COc1ccc(NC(=O)c2nc(S(=O)(=O)Cc3cccc(C)c3)ncc2Cl)c(OC)c1 |
| – | inactive | COc1ccc2c(c1)c(CC(=O)Nc1cc(C)ccc1C)c(C)n2C(=O)c1ccc(Cl)cc1 |
| 6.67 | – | COc1cc(CN2CCc3ccccc3C2)ccc1O |
| – | inactive | CN(C)S(=O)(=O)c1cccc(NC(=O)c2cccc(S(=O)(=O)N3CCc4ccccc43)c2)c1 |
| – | inactive | Cc1cc2c(cc(C(=O)N3CCC(C(=O)NC4CCCC4)CC3)n2Cc2c(F)cccc2Cl)o1 |
| – | inactive | CC(=O)N1CCN(C(=O)CCc2cc(C(C)(C)C)c(O)c(C(C)(C)C)c2)CC1 |
| – | inactive | O=c1c2ccccc2nc2n1C(CSCc1ccc(Cl)cc1Cl)CS2 (stereo not drawn) |
| – | inactive | COc1ccccc1N1CCN(c2ncc(C(=O)N3CCN(c4cccc(Cl)c4)CC3)c3ccccc23)CC1 |
| – | inactive | Cc1ccc2cc(CN(CC3CCCO3)C(=O)NC3CCCCC3)c(=O)[nH]c2c1C (stereo not drawn) |

Reference: PubChem BioAssay AID720695 (Broad Institute, 2013)
